Measurements as given in PMC3740782, “Synthesis of some potent immunomodulatory and anti-inflammatory metabolites by fungal transformation of anabolic steroid oxymetholone” (Chemistry Central Journal, 2012).

What was measured:
[1] = tested on: T-cell proliferation (PHA activated human peripheral mononuclear cells, PBMC); test: T-cell proliferation inhibition assay (PHA-activated PBMC, tritiated thymidine incorporation); type: cell-based; conditions: PHA (5 μg/mL) stimulated PBMC, 72 h + 18 h thymidine pulse, mean of triplicate ± SD, read-out: IC50, inhibitory effect on T-cell proliferation
Experimental: Peripheral blood mononuclear cells (PBMC) were isolated from heparinized venous blood of healthy adult donors by Ficoll–Hypaque gradient centrifugation. Cells were proliferated as reported earlier. Briefly, cells were cultured at a concentration of 2 × 10^6/mL in a 96-well round bottom tissue culture plate. Cells were stimulated with 5 μg/mL of phytohemagglutinin. Various concentrations of compounds were added to obtain final concentrations of 0.5, 5, 50 μg/mL, each in triplicate. The plate was incubated for 72 h at 37°C in 5% CO2 environment. After 72 h, cells were pulsed with 0.5 μCi/well, tritiated thymidine, and further incubated for 18 h. Cells were harvested onto a glass fiber filter by using cell harvester. The tritiated thymidine incorporation into the cells, which reflects the proliferation level, was measured by a liquid scintillation counter.

[2] = tested on: ROS production in whole blood phagocytes; test: Luminol-enhanced phagocyte chemiluminescence assay, ROS production in whole blood; type: cell-based; conditions: zymosan activated, luminol probe, mean of triplicate ± SD; for IC50: Homo sapiens
Experimental: (§1) Luminol-enhanced chemiluminescence assay was performed according to the previous reported method. Briefly 25 μL of whole blood or neutrophils (1 × 10^6/mL), suspended in Hank’s solution, were incubated with 25 μL compounds (1, 10, 100 μg/mL for whole blood and 0.5, 5, 50 μg/mL for neutrophils) for 30 min. Zymosan 25 μL (20 mg/mL), followed by 25 μL (7 × 10^-5 M) of luminol was added to make a final volume of 100 μL. A control without the compound was also run. Peak chemiluminescence was recorded using the luminometer. The luminometer was set with repeated scan mode, 50 scans with 30 s intervals and one second point measuring time.

ROS production in PMNs = test: Luminol-enhanced phagocyte chemiluminescence assay, ROS production in isolated PMNs (neutrophils); type: cell-based; conditions: Homo sapiens, Neutrophil, zymosan activated, luminol probe, mean of triplicate ± SD
Experimental: as §1

T-cells = tested on: T-cells; parameters: method as in PMID 11071398; conditions: by decreasing the activity of T-cells; cited from earlier work

With C[C@]12CC(=CO)C(=O)C[C@@H]1CC[C@@H]1[C@@H]2CC[C@@]2(C)[C@H]1CC[C@]2(C)O [Compound 1, 17β-hydroxy-2-(hydroxymethylene)-17α-methyl-5α-androstan-3-one, reference compound] the IC50 [1] was 7.5 ± 0.4 µg/mL, the IC50 [2] was roughly 2 µg/mL and the “IC50, ROS production (Whole Blood phagocytes)” value ([2]; human whole blood) was 2.3 ± 0.0 µg/mL. The IC50 (ROS production in PMNs) was 6.3 ± 0.1 µg/mL and the “Immunosuppressant activity in vivo” value (T-cells) was “immunosuppressant activity”.

For C[C@]12C=C(CO)C(=O)C[C@@H]1CC[C@@H]1[C@@H]2CC[C@@]2(C)[C@H]1CC[C@]2(C)O [Compound 2, 17β-Hydroxy-2-(hydroxymethyl)-17α-methyl-5α-androstan-1-en-3-one], the IC50 [1] was 17.4 ± 1.2 µg/mL and the IC50 [2] was roughly 2 µg/mL.

For C[C@]12C[C@@H](CO)[C@H](O)C[C@@H]1CC[C@@H]1[C@@H]2CC[C@@]2(C)[C@H]1CC[C@@]2(O)CO [Compound 3, 2α,17α-Di(hydroxymethyl)-5α-androstan-3β-17β-diol], the IC50 [1] was 17 ± 1.2 µg/mL, the IC50 [2] was greater than 100 µg/mL and the IC50 (ROS production in PMNs) was greater than 50 µg/mL.

With CC12CC(O)C(O)CC1CCC1C2CCC2(C)C1CCC2(C)O (stereo not drawn) [Compound 4, 17α-Methyl-5α-androstan-2α,3β-17β-triol] the IC50 [1] was 11.8 ± 0.9 µg/mL, the IC50 [2] was greater than 100 µg/mL and the IC50 (ROS production in PMNs) was greater than 50 µg/mL. For the same compound, the melting point was 124 to 125 °C.

C[C@]12C=C(CO)C(=O)C=C1CC[C@@H]1[C@@H]2CC[C@@]2(C)[C@H]1CC[C@]2(C)O [Compound 5, 17β-Hydroxy-2-(hydroxymethyl)-17α-methylandrost-1,4-dien-3-one] gave an IC50 [1] of 31.2 ± 1.9 µg/mL, an IC50 [2] greater than 100 µg/mL and an IC50 (ROS production in PMNs) greater than 50 µg/mL. The melting point was 163 to 164 °C.

With C[C@]12C[C@@H](CO)C(=O)C[C@@H]1CC[C@@H]1[C@@H]2CC[C@@]2(C)[C@H]1CC[C@]2(C)O [Compound 6, 17β-Hydroxy-2α-(hydroxymethyl)-17α-methyl-5α-androstan-3-one] the IC50 [1] was 2.7 ± 0.2 µg/mL, the IC50 [2] was greater than 100 µg/mL and the IC50 (ROS production in PMNs) was greater than 50 µg/mL. The melting point was 197 to 199 °C.

With C[C@]12C[C@@H](CO)[C@H](O)C[C@@H]1CC[C@@H]1[C@@H]2CC[C@@]2(C)[C@H]1CC[C@]2(C)O [Compound 7, 2α-(Hydroxymethyl)-17α-methyl-5α-androstan-3β-17β-diol] the IC50 [1] was 10.6 ± 0.4 µg/mL, the IC50 [2] was 25.6 µg/mL and the IC50 (ROS production in PMNs) was greater than 50 µg/mL. The melting point was 279 to 281 °C.

With CC(C)Cc1ccc(C(C)C(=O)O)cc1 (centres unmarked) [Ibuprofen, reference compound] the IC50 [2] was 11.2 ± 1.9 µg/mL and the IC50 (ROS production in PMNs) was 2.5 ± 0.6 µg/mL.

C[C@]12C=CC(=O)C=C1CC[C@@H]1[C@@H]2[C@@H](O)C[C@@]2(C)[C@H]1CC[C@]2(O)C(=O)CO [Prednisolone, reference compound] showed an IC50 [1] of less than 3.1 µg/mL.
